Reference: DBAASP
≈ marks a conversion by molar mass, not a printed value.

Columns and labels:
Experiment in all cases: ≥ marks a high value that may be exact or a test limit, other limits are often not marked, values filed in µg/mL are converted to µM
[1] = system: Staphylococcus aureus ATCC 49476
Candida albicans = system: Candida albicans
[2] = system: Pseudomonas aeruginosa ATCC 27853
Staphylococcus aureus MR = system: Staphylococcus aureus MR
Escherichia coli D21 = system: Escherichia coli D21
[3] = system: Acinetobacter baumannii ATCC 19606
[4] = system: Candida albicans ATCC 10231
Bacillus megaterium Bm11 = system: Bacillus megaterium Bm11
[5] = system: Yersinia pseudotuberculosis YPIII
[6] = system: Schizosaccharomyces pombe
[7] = system: Pseudomonas syringae pv. tabaci 1918NCPPB
Acinetobacter junii RT-4 = system: Acinetobacter junii RT-4
[8] = system: Streptococcus pyogenes ATCC 21547
Staphylococcus capitis 1 = system: Staphylococcus capitis 1
[9] = system: Enterococcus faecalis ATCC 29212
Saccharomyces cerevisiae = system: Saccharomyces cerevisiae
[10] = system: Staphylococcus aureus Cowan 1
[11] = system: Pseudomonas aeruginosa ATCC 15692
[12] = system: Escherichia coli ATCC 25922
[13] = system: Staphylococcus aureus ATCC 25923
[14] = system: Staphylococcus epidermidis ATCC 12228
[15] = system: Staphylococcus aureus ATCC 6538
[16] = system: Pseudomonas aeruginosa ATCC 9027
[17] = system: Bacillus subtilis ATCC 9372
[18] = system: Escherichia coli ATCC 8739
[19] = system: Proteus vulgaris NCTC 4635
[20] = system: Trichosporon beigelii KCTC 7707
[21] = system: Saccharomyces cerevisiae KCTC 7296
[22] = system: Pseudomonas aeruginosa KCTC 1637
[23] = system: Salmonella typhimurium KCTC 1926
[24] = system: Candida albicans TIMM 1768
[25] = system: Staphylococcus epidermidis KCTC 3096
[26] = system: Bacillus subtilis KCTC 1918
[27] = system: Salmonella enterica subsp. enterica serovar Typhi DMST 22842
Vibrio cholerae non-O1 = system: Vibrio cholerae non-O1
Escherichia coli O157:H7 = system: Escherichia coli O157:H7
Vibrio cholerae non-O139 = system: Vibrio cholerae non-O139

With CC[C@H](C)[C@H](NC(=O)[C@H](C)NC(=O)[C@H](CCCCN)NC(=O)CNC(=O)[C@H](C)NC(=O)[C@H](CO)NC(=O)[C@H](Cc1ccccc1)NC(=O)[C@H](CC(C)C)NC(=O)CNC(=O)CNC(=O)[C@@H](NC(=O)[C@@H](NC(=O)[C@H](Cc1cnc[nH]1)NC(=O)[C@H](Cc1cnc[nH]1)NC(=O)[C@@H](NC(=O)[C@@H](N)Cc1ccccc1)[C@@H](C)CC)[C@@H](C)CC)[C@@H](C)CC)C(=O)N[C@@H](Cc1cnc[nH]1)C(=O)N[C@@H](CCCN=C(N)N)C(=O)N[C@@H](CC(C)C)C(=O)N[C@H](C(=O)N[C@@H](CCCN=C(N)N)C(=O)N[C@@H](CCCN=C(N)N)C(=O)N[C@@H](CCCN=C(N)N)C(=O)O)[C@@H](C)CC [FIHHIIGGLFSAGKAIHRLIRRR] the MIC [1] was 5.99 µM (≈ 16 µg/mL), the MIC (Candida albicans) was 48 µM (≈ 128 µg/mL) and the MIC [2] was 192 µM (≈ 512 µg/mL). For the same compound, the MIC (Staphylococcus aureus MR) was 12 µM (≈ 32 µg/mL).
With CC[C@H](C)[C@H](NC(=O)[C@H](CC(C)C)NC(=O)[C@H](CO)NC(=O)[C@H](Cc1cnc[nH]1)NC(=O)[C@@H](NC(=O)[C@H](Cc1cnc[nH]1)NC(=O)[C@H](CCCCN)NC(=O)CNC(=O)[C@@H](NC(=O)[C@H](CO)NC(=O)[C@H](Cc1ccccc1)NC(=O)[C@H](CC(C)C)NC(=O)CNC(=O)CNC(=O)[C@@H](NC(=O)[C@@H](NC(=O)[C@H](Cc1cnc[nH]1)NC(=O)[C@H](Cc1cnc[nH]1)NC(=O)[C@@H](NC(=O)[C@@H](N)Cc1ccccc1)[C@@H](C)CC)[C@@H](C)CC)[C@@H](C)CC)C(C)C)[C@@H](C)CC)C(=O)N[C@@H](Cc1cnc[nH]1)C(=O)NCC(=O)N[C@@H](Cc1cnc[nH]1)C(=O)O [FIHHIIGGLFSVGKHIHSLIHGH] the MIC [1] was ≥ 100 µM, the MIC (Candida albicans) was 50.1 µM (≈ 128 µg/mL) and the MIC [2] was > 200 µM. For the same compound, the MIC (Staphylococcus aureus MR) was ≥ 100 µM.
CC[C@H](C)[C@H](NC(=O)[C@H](CCCN=C(N)N)NC(=O)CNC(=O)[C@H](CC(C)C)NC(=O)[C@H](Cc1ccccc1)NC(=O)[C@H](CCCN=C(N)N)NC(=O)[C@H](CO)NC(=O)[C@H](Cc1ccccc1)NC(=O)[C@H](Cc1c[nH]c2ccccc12)NC(=O)[C@H](CCC(N)=O)NC(=O)[C@@H](NC(=O)[C@@H](N)Cc1ccccc1)C(C)C)C(=O)N[C@@H](CC(C)C)C(N)=O [FVQWFSRFLGRIL] was tested, and the MIC (Escherichia coli D21) was ≥ 48 µM, the MIC [3] was 6 µM (≈ 10 µg/mL) and the MIC [4] was 12 µM (≈ 20 µg/mL). It also gave an MIC (Bacillus megaterium Bm11) of 6 µM (≈ 10 µg/mL), an MIC [5] of 6 µM (≈ 10 µg/mL) and an MIC [6] of 6 µM (≈ 10 µg/mL). It also gave an MIC [7] of 12 µM (≈ 20 µg/mL), an MIC [2] of 48 µM (≈ 80.1 µg/mL) and an MIC (Acinetobacter junii RT-4) of 6 µM (≈ 10 µg/mL). For the same compound, the MIC [8] was 6 µM (≈ 10 µg/mL), the MIC (Staphylococcus capitis 1) was 6 µM (≈ 10 µg/mL) and the MIC [9] was 12 µM (≈ 20 µg/mL). The MIC (Saccharomyces cerevisiae) was 12 µM (≈ 20 µg/mL), the MIC [10] was 6 µM (≈ 10 µg/mL) and the MIC [11] was 24 µM (≈ 40 µg/mL). For the same compound, the MIC [12] was 12 µM (≈ 20 µg/mL), the MIC [13] was 6 µM (≈ 10 µg/mL) and the MIC [14] was 6 µM (≈ 10 µg/mL).
For CC[C@H](C)[C@H](NC(=O)[C@H](CCCN=C(N)N)NC(=O)CNC(=O)[C@H](CC(C)C)NC(=O)[C@H](Cc1ccccc1)NC(=O)[C@H](CCCN=C(N)N)NC(=O)[C@H](CO)NC(=O)[C@H](Cc1ccccc1)NC(=O)[C@H](Cc1c[nH]c2ccccc12)NC(=O)[C@H](CCCN=C(N)N)NC(=O)[C@@H](NC(=O)[C@@H](N)Cc1ccccc1)C(C)C)C(=O)N[C@@H](CC(C)C)C(N)=O [FVRWFSRFLGRIL], the MIC (Escherichia coli D21) was 24 µM (≈ 40.7 µg/mL), the MIC [3] was 6 µM (≈ 10.2 µg/mL) and the MIC [4] was 24 µM (≈ 40.7 µg/mL). For the same compound, the MIC (Bacillus megaterium Bm11) was 3 µM (≈ 5.09 µg/mL), the MIC [5] was 6 µM (≈ 10.2 µg/mL) and the MIC [6] was 12 µM (≈ 20.4 µg/mL). For the same compound, the MIC [7] was 6 µM (≈ 10.2 µg/mL), the MIC [2] was 24 µM (≈ 40.7 µg/mL) and the MIC (Acinetobacter junii RT-4) was 12 µM (≈ 20.4 µg/mL). For the same compound, the MIC [8] was 3 µM (≈ 5.09 µg/mL), the MIC (Staphylococcus capitis 1) was 6 µM (≈ 10.2 µg/mL) and the MIC [9] was 24 µM (≈ 40.7 µg/mL). It also gave an MIC (Saccharomyces cerevisiae) of 24 µM (≈ 40.7 µg/mL), an MIC [10] of 6 µM (≈ 10.2 µg/mL) and an MIC [11] of 24 µM (≈ 40.7 µg/mL). For the same compound, the MIC [12] was 48 µM (≈ 81.4 µg/mL), the MIC [13] was 6 µM (≈ 10.2 µg/mL) and the MIC [14] was 6 µM (≈ 10.2 µg/mL).
With CC[C@H](C)[C@H](NC(=O)[C@@H](NC(=O)[C@H](CO)NC(=O)[C@H](C)NC(=O)[C@H](CCCCN)NC(=O)[C@@H](NC(=O)[C@@H](NC(=O)[C@H](CC(=O)O)NC(=O)[C@H](Cc1ccccc1)NC(=O)[C@H](CC(C)C)NC(=O)CN)C(C)C)[C@@H](C)CC)C(C)C)C(=O)NCC(=O)NCC(=O)N[C@@H](CC(C)C)C(=O)O [GLFDVIKASVIGGL] the MIC [15] was 737 µM (≈ 1020 µg/mL), the MIC [16] was 737 µM (≈ 1020 µg/mL) and the MIC [17] was ≥ 737 µM. For the same compound, the MIC [18] was ≥ 369 µM and the MIC [19] was ≥ 737 µM.
With CC[C@H](C)[C@H](NC(=O)[C@@H](NC(=O)[C@H](CC(=O)O)NC(=O)[C@H](Cc1ccccc1)NC(=O)[C@H](CC(C)C)NC(=O)CN)C(C)C)C(=O)N[C@@H](CCCCN)C(=O)O [GLFDVIK] the MIC [15] was > 1290 µM, the MIC [16] was 1290 µM (≈ 1020 µg/mL) and the MIC [17] was ≥ 1290 µM. For the same compound, the MIC [18] was ≥ 1290 µM and the MIC [19] was ≥ 1290 µM.
In the case of CC(C)C[C@H](NC(=O)[C@H](CCCCN)NC(=O)[C@H](CC(C)C)NC(=O)[C@H](CCCCN)NC(=O)[C@H](CC(C)C)NC(=O)[C@@H]1CCCN1C(=O)[C@H](CCCCN)NC(=O)[C@H](CCCCN)NC(=O)[C@H](CC(C)C)NC(=O)[C@H](CC(C)C)NC(=O)[C@H](CCCCN)NC(=O)[C@H](CCCCN)NC(=O)[C@H](Cc1c[nH]c2ccccc12)NC(=O)[C@@H](N)CCCCN)C(N)=O [KWKKLLKKPLKLKL], the MIC [20] is reported as 3.1 µM (≈ 5.47 µg/mL), the MIC [21] is reported as 12.5 µM (≈ 22 µg/mL) and the MIC [22] is reported as 3.1 µM (≈ 5.47 µg/mL). The MIC [23] was 0.2 µM (≈ 0.353 µg/mL), the MIC [24] was 12.5 µM (≈ 22 µg/mL) and the MIC [25] was 3.1 µM (≈ 5.47 µg/mL). For the same compound, the MIC [26] was 3.1 µM (≈ 5.47 µg/mL).
Work on CC(C)C[C@H](NC(=O)[C@H](CCCCN)NC(=O)[C@H](CCCCN)NC(=O)[C@H](CC(C)C)NC(=O)[C@H](CC(C)C)NC(=O)[C@H](CCCCN)NC(=O)[C@H](CCCCN)NC(=O)[C@H](CC(C)C)NC(=O)[C@H](CC(C)C)NC(=O)[C@@H]1CCCN1C(=O)[C@H](CCCCN)NC(=O)[C@H](CC(C)C)NC(=O)[C@H](CCCCN)NC(=O)[C@H](Cc1c[nH]c2ccccc12)NC(=O)[C@@H](N)CCCCN)C(N)=O [KWKLKPLLKKLLKKL] yielded an MIC [20] of 1.6 µM (≈ 3 µg/mL), an MIC [21] of 12.5 µM (≈ 23.5 µg/mL) and an MIC [22] of 3.1 µM (≈ 5.82 µg/mL). For the same compound, the MIC [23] was 0.2 µM (≈ 0.375 µg/mL), the MIC [24] was 12.5 µM (≈ 23.5 µg/mL) and the MIC [25] was 1.6 µM (≈ 3 µg/mL). It also gave an MIC [26] of 3.1 µM (≈ 5.82 µg/mL).
Work on CC(C)[C@H](NC(=O)CNC(=O)[C@@H](N)CC(N)=O)C(=O)N[C@@H](CCC(N)=O)C(=O)N1CCC[C@H]1C(=O)N[C@@H](CCCCN)C(=O)N[C@@H](Cc1ccc(O)cc1)C(=O)N[C@@H](CCCCN)C(=O)N[C@@H](Cc1c[nH]c2ccccc12)C(=O)N[C@@H](Cc1c[nH]c2ccccc12)C(=O)N[C@@H](CCCCN)C(=O)N[C@@H](Cc1c[nH]c2ccccc12)C(=O)N[C@@H](Cc1c[nH]c2ccccc12)C(=O)N[C@@H](CCCCN)C(=O)N[C@@H](CCCCN)C(=O)N[C@@H](Cc1c[nH]c2ccccc12)C(=O)N[C@@H](Cc1c[nH]c2ccccc12)C(N)=O [NGVQPKYKWWKWWKKWW] yielded an MIC [27] of 9.45 µM (≈ 23 µg/mL), an MIC (Vibrio cholerae non-O1) of 4.52 µM (≈ 11 µg/mL) and an MIC (Escherichia coli O157:H7) of 4.52 µM (≈ 11 µg/mL). For the same compound, the MIC (Vibrio cholerae non-O139) was 4.52 µM (≈ 11 µg/mL), the MIC [2] was 37.4 µM (≈ 91 µg/mL) and the MIC [12] was 4.52 µM (≈ 11 µg/mL). The MIC [13] was 18.9 µM (≈ 46 µg/mL) and the MIC [14] was 9.45 µM (≈ 23 µg/mL).
